Assay results: patent publication US6468555B1, “Pesticidal compositions” (Sumitomo Chemical Company, Limited, priority 1999, dated 2002)

Assays:
Aphis gossypii = assay: Pesticidal test against Aphis gossypii on potted cabbage plants (foliar spray); assay type: in vivo; details: 2.0 ppm active ingredient, 20 adults set free per pot; for Number of surviving aphids per pot After 3 days: 3 days after spraying; for Number of surviving aphids per pot After 6 days: 6 days after spraying
From the text: Pesticidal Test Against Aphis gossypii
Twenty adults of Aphis gossypii were set free on three-leafed cabbage plants in pots. These plants were uniformly sprayed using a spray gun with a water dilution in a prescribed concentration of a commercial product of compound A (trade name: Lano 10EC; available from Sumitomo Chemical Co., Ltd.), a commercial product of compound B (trade name: Baroque Flowable; available from Yashima Chemical Industry Co., Ltd.), or a mixture of the commercial product of compound A and the commercial product of compound B. After air drying, the pots were placed in a greenhouse. On a predetermined day after the application, the cabbage plants were examined for the number of aphids surviving thereon.

Bemisia argentifolii = assay: Pesticidal test against Bemisia argentifolii first-instar nymphs on cabbage seedlings (foliar spray); assay type: in vivo; details: 16 days after application
From the text: Pesticidal Test Against Bemisia argentifolii
Cabbage seedlings infested with first-instar nymphs of Bemisia argentifollii were uniformly sprayed using a spray gun with a water dilution in a prescribed concentration of a commercial product of compound A (trade name: Lano 10EC; available from Sumitomo Chemical Co., Ltd.), a commercial product of compound B (trade name: Baroque Flowable; available from Yashima Chemical Industry Co., Ltd.), or a mixture of the commercial product of compound A and the commercial product of compound B. After air drying, each of the cabbage seedlings was placed in a net cage and kept in a greenhouse. After 16 days from the application, the number of emergent adults was determined.

Row | Structure (SMILES) | Number of surviving aphids per pot After 3 days (Aphis gossypii) | Number of surviving aphids per pot After 6 days (Aphis gossypii) | Number of emergent adults (Bemisia argentifolii; 0.4 ppm, 125 nymphs used) | Number of emergent adults (Bemisia argentifolii; 0.2 ppm, 108 nymphs used)
1 | CCOc1cc(C(C)(C)C)ccc1C1COC(c2c(F)cccc2F)=N1 (stereo not drawn) [Compound B, 2-(2,6-difluorophenyl)-4-(2-ethoxy-4-tert-butyl-phenyl)-2-oxazoline] | 11 | 25 | 51 | 
2 | CC(COc1ccc(Oc2ccccc2)cc1)Oc1ccccn1 (stereo not drawn) [Compound A, 4-phenoxyphenyl 2-(2-pyridyloxy)propyl ether] | 45 | 11 |  | 13
